Laboratory results published in US20220273732A1, “PROBIOTIC THERAPIES FOR SOCIAL DEFICIT AND STRESS RESPONSE” (California Institute of Technology, priority 2021, published 2022).
Entries after “also recorded” stand apart in the source; their conditions may differ. No end group written: not given here.

How the values were obtained:
mice [1] = test: Reciprocal social interaction (RSI) test, social activity; format: in vivo; settings: for social activity of ABX adrenalectomized mice: under drug treatment, compared to ABX sham and vehicle sham mice
mice [2] = test: Non-social activity (self-grooming, digging, rearing) in the RSI paradigm; format: in vivo
Excerpt: Minimal aggressive behaviors were observed. Each novel mouse was used for testing up to two times per day. Subject mice undergoing repeated testing throughout the experiment were confronted with a novel mouse each time. The following social investigation behaviors constituted “social activity” and were scored as such: anogenital sniffing, nose-nose sniffing, active approach, and push under/crawl. The following solitary behaviors during social interaction constituted “non-social activity” and were scored as such: self-grooming, digging, and rearing. All behaviors were analyzed using of ETHOM software (Shih, 2000).
Novel cage behavior is a widely-used test for measuring the non-social activity in a novel environment. The subject mouse was placed in an unused, sterilized cage. Non-social activity was video recorded for 5 minutes. The following solitary behaviors during social interaction constituted “non-social activity” and were scored as such: self-grooming, digging, and rearing. All behaviors were analyzed using of ETHOM software (Shih, 2000).

corticosterone = test: Serum corticosterone measurement (Corticosterone EIA Kit); format: in vivo, mice; settings: for serum corticosterone: CNO i.p.; for serum corticosterone levels: GF mice, 50 mg/kg i.p., vs CMC vehicle, 50 mg/kg
Procedure: Whole blood was collected either by cardiac puncture or retro-orbital bleeding, and placed into Micro tube Z gel (41.1378.005; Sarstedt). Serum was separated by centrifuge at 10,000×g for five minutes, and stored at −80° C. until use. Corticosterone levels were detected by the Corticosterone EIA Kit (K014-H5; Arbor Assays) using the manufacturer's protocol. Due to the nature of the circadian rhythm for the corticosterone, the blood sample was collected during 1:00-5:00 pm on each day of experiment.

c-Fos = c-Fos staining of brain sections after social interaction; format: in vivo; settings: ABX hM4Di mice, CNO
Procedure: All brain samples for c-Fos expression were collected one hour after the reciprocal social interaction test. Mice were anesthetized by intraperitoneal injection with a mixture of 100 mg/kg ketamine and 10 mg/kg xylazine. The mice were then perfused via the cardiovascular system with PBS followed by 4% paraformaldehyde (Electron Microscopy Sciences). Brains were removed and post-fixed in 4% paraformaldehyde 3-5 days at 4° C. The brains were kept in PBS with 0.02% sodium azide at 4° C. until sectioning.
The brains were embedded in 4% UltraPure low melting point agarose (ThermoFisher) and were coronally sectioned by vibratome (VT1000S; Leica) at a thickness of 50 μm, with the exception of the brain sections for FIGS. 1D-1F that were sectioned at a thickness of 100 μm. Brain sections of 50 μm were collected and stained every 0.15 mm. Brain sections of 100 μm were collected sequentially and stained entirely. The brain sections were stored as free-floating in PBS with 0.02% sodium azide at 4° C. until staining. […] The next day, sections were incubated with fluorescence-conjugated secondary antibody for 1.5-2 hours at room temperature. […] The fluorescence-conjugated secondary antibodies were donkey anti-goat (1:1000), donkey anti-rabbit (1:1000), and donkey anti-mouse (1:1000) (ThermoFisher Scientific). […]

C[C@]12C[C@H](O)[C@H]3[C@@H](CCC4=CC(=O)CC[C@@]43C)[C@@H]1CC[C@@H]2C(=O)CO [corticosterone]
social behavior (mice [1]; acute injection, 10 mg/kg i.p. on two consecutive days, all groups (vehicle sham, ABX sham, ABX ADX)): impaired | social activity (mice [1]; injection into the DG and BNST of SPF mice (corticosterone 65 μM, dexamethasone 20 mM)): decreased

CC#C[C@]1(O)CC[C@H]2[C@@H]3CCC4=CC(=O)CCC4=C3[C@@H](c3ccc(N(C)C)cc3)C[C@@]21C [RU-486, mifepristone]
social activity (mice [1]; ABX control mice vs ABX Nr3cl^ΔDG or Nr3cl^ΔBNST mice, 40 mg/kg i.p.): enhanced social activity only in ABX control mice | social activity of ABX adrenalectomized mice (mice [1]): elevated

CRF: synthetic corticotropin-releasing factor (SEEPPISLDLTFHLLREVLEMARAEQLAQQAHSNRKLMEII; ends and bridges not checked; UniProt P06850 154-194, looked up)
non-social activity (mice [2]; high levels of CRF into PVN of SPF mice): reversed these changes | non-social activity (mice [2]; low levels of CRF into PVN of SPF mice): increased | social activity toward a novel mouse (mice [1]; injection into the PVN of SPF mice (210 μM or 42 μM, 450 nL per hemisphere)): dramatically reduced

C[N+]1([O-])CCN(C2=Nc3cc(Cl)ccc3Nc3ccccc32)CC1 [CNO, clozapine N-oxide]
serum corticosterone (corticosterone; ABX hM4Di mice (PVN), after social interaction): decreased; also recorded: reduction | serum corticosterone (corticosterone; SPF hM3Dq mice (PVN)): increased | non-social activity (mice [2]; SPF hM3Dq mice, chemogenetic activation of PVN CRH neurons): increased | social behavior (mice [1]; ABX Crh-ires-Cre mice with hM4Di in PVN, CNO i.p. 2-3 mg/kg): dramatically increased | social behavior (mice [1]; ABX mice receiving control virus (mCherry) in PVN, CNO i.p.): no change | social behavior (mice [1]; SPF hM3Dq mice (PVN), CNO i.p.): significantly decreased | c-Fos expression in the BNST or DG (c-Fos): did not alter | c-Fos staining in the PVN (c-Fos): decreased

CC(C)(C(=O)c1cccnc1)c1cccnc1 [metyrapone]
serum corticosterone levels (corticosterone; after social interaction): effectively reduced | serum corticosterone levels (corticosterone; after social interaction, listed as MET): reduction | social activity (mice [1]; GF mice, 50 mg/kg i.p., 40 min before test, vs CMC vehicle): significantly increased | social activity of ABX sham mice compared to vehicle sham mice (mice [1]; during drug treatment i.p. (RU-486 40 mg/kg, MET 50 mg/kg)): increased | social activity of ABX adrenalectomized mice (mice [1]): elevated
